Results from publication PMC9501633, “Synthesis, Characterisation and Mechanism of Action of Anticancer 3-Fluoroazetidin-2-ones” (Pharmaceuticals, 2022).

Assays:
[1] = system: TK-10; assay: NCI 60 cell line screen, Renal; assay type: cell-based, human; conditions: one dose 10 µM; for inhibition at 10 µM: Homo sapiens
[2] = system: MALME-3M; assay: NCI 60 cell line screen, Melanoma; assay type: cell-based, human; conditions: one dose 10 µM; for inhibition at 10 µM: Homo sapiens
[3] = system: MDA-MB-231/ATCC; assay: NCI 60 cell line screen, Breast; assay type: cell-based, human; conditions: one dose 10 µM; for inhibition at 10 µM: Homo sapiens
[4] = system: A549/A TCC; assay: NCI 60 cell line screen, NSCLung; assay type: cell-based, human; conditions: one dose 10 µM; for inhibition at 10 µM: Homo sapiens
[5] = system: OVCAR-4; assay: NCI 60 cell line screen, Ovarian; assay type: cell-based, human; conditions: one dose 10 µM; for inhibition at 10 µM: Homo sapiens
[6] = system: M14; assay: NCI 60 cell line screen, Melanoma; assay type: cell-based, human; conditions: one dose 10 µM; for inhibition at 10 µM: Homo sapiens
[7] = system: NCI-H23; assay: NCI 60 cell line screen, NSCLung; assay type: cell-based, human; conditions: one dose 10 µM; for inhibition at 10 µM: Homo sapiens
[8] = system: leukaemia panel; assay: NCI 60 cell line one-dose screen, panel mean; assay type: cell-based; conditions: Homo sapiens, one dose 10 μM, read-out: mean growth inhibition
Description: The antiproliferative effects of selected compounds 33, 37 and 43 were initially evaluated in the NCI 60 cell line screen at 10 μM concentration (see Supplementary Materials Table S3).
aData obtained from NCI in vitro human tumour cell screen 1 dose assay (10 µM). 33 (NCI

[9] = system: K-562; assay: NCI 60 cell line screen, Leukaemia; assay type: cell-based, human; conditions: for inhibition at 10 µM: Homo sapiens, K562, one dose 10 µM; for Growth %: one dose 10 µM
[10] = system: NCI-H226; assay: NCI 60 cell line screen, NSCLung; assay type: cell-based, human; conditions: one dose 10 µM; for inhibition at 10 µM: Homo sapiens
[11] = system: SF-539; assay: NCI 60 cell line screen, CNS; assay type: cell-based, human; conditions: one dose 10 µM; for inhibition at 10 µM: Homo sapiens
[12] = system: BT-549; assay: NCI 60 cell line screen, Breast; assay type: cell-based, human; conditions: one dose 10 µM; for inhibition at 10 µM: Homo sapiens
[13] = system: SNB-75; assay: NCI 60 cell line screen, CNS; assay type: cell-based, human; conditions: one dose 10 µM; for inhibition at 10 µM: Homo sapiens
[14] = system: SK-MEL-5; assay: NCI 60 cell line screen, Melanoma; assay type: cell-based, human; conditions: one dose 10 µM; for inhibition at 10 µM: Homo sapiens
[15] = system: U251; assay: NCI 60 cell line screen, CNS; assay type: cell-based, human; conditions: for inhibition at 10 µM: Homo sapiens, U-251, one dose 10 µM; for Growth %: one dose 10 µM
[16] = system: NCI-H460; assay: NCI 60 cell line screen, NSCLung; assay type: cell-based, human; conditions: one dose 10 µM; for inhibition at 10 µM: Homo sapiens
[17] = system: MCF7; assay: NCI 60 cell line screen, Breast; assay type: cell-based, human; conditions: one dose 10 µM; for inhibition at 10 µM: Homo sapiens, MCF7, MCF7; for Growth % / Inhibition %: MCF7
[18] = system: T-47D; assay: NCI 60 cell line screen, Breast; assay type: cell-based, human; conditions: one dose 10 µM; for inhibition at 10 µM: Homo sapiens, T47D
[19] = system: NCI-H322M; assay: NCI 60 cell line screen, NSCLung; assay type: cell-based, human; conditions: one dose 10 µM; for inhibition at 10 µM: Homo sapiens
[20] = system: RPMI-8226; assay: NCI 60 cell line screen, Leukaemia; assay type: cell-based, human; conditions: one dose 10 µM; for inhibition at 10 µM: Homo sapiens
[21] = system: MCF-7 human breast cancer cells; assay: AlamarBlue cell viability assay; assay type: cell-based; conditions: Homo sapiens, MCF7, 72 h, MCF-7, 72 h
Description: The antiproliferative potential of the synthesised 3-fluoro β-lactams 26–35 and 3,3-difluoro β-lactams 36–45 was evaluated in MCF-7 human breast cancer cells using the AlamarBlue assay, with CA-4 as reference compound (Figure 3). […] The results for the preliminary in vitro antiproliferative screen for 3-fluoro β-lactam compounds (26–29), which contain different substituents at the para position in the B ring, are presented in Figure 3A.
Cells were seeded at a density of 5 × 10^3 cells/well (MCF-7 and MDA-MB-231) and 1 × 10^4 cells/well (HEK-293T) in 96-well plates (200 μL per well). After 24 h, cells were then treated with medium alone, with vehicle (1% ethanol (v/v)) or with CA-4 or β-lactam compounds at 1 μM and 10 μM concentrations. […] Cell proliferation for MCF-7 cells was analysed with the AlamarBlue assay (Invitrogen Corp.) as previously described by us. After 72 h, AlamarBlue (10% (v/v)) was added to each well, and plates were incubated for 3–5 h at 37 °C in the dark. Fluorescence results were obtained with a 96-well fluorimeter with excitation at 530 nm and emission at 590 nm with results recorded as percentage viability relative to vehicle control (100%). Dose–response curves were obtained and IC50 values (concentration of drug resulting in 50% reduction in cell survival) were calculated using Prism (GraphPad Software, Inc., La Jolla, CA, USA).
Figure 3 Preliminary cell viability data for 3-fluoro and 3,3-difluoro β-lactam compounds. (A) 3-Fluoro β-lactam compounds containing different para-substituent ring B 26–29; 3-fluoro β-lactam compounds containing different meta-substituent ring B 30, 32–35; (B) 3-difluoro β-lactam compounds containing different para-substituent ring B 36–39; 3-difluoro β-lactam compounds containing different meta-substituent ring B 40, 42–45 in MCF-7 breast cancer cells. Cell proliferation of MCF-7 cells was determined with an AlamarBlue assay (seeding density […] for 96-well plates). Compound concentrations of either 10 μM or 1 μM for 72 h were used to treat the cells with control wells containing vehicle ethanol (1% v/v) and CA-4 (10 μM and 1 μM). The mean value for three experiments is shown with the ± S.E.M. for three independent experiments.

[22] = system: COLO 205; assay: NCI 60 cell line screen, Colon; assay type: cell-based, human; conditions: one dose 10 µM; for inhibition at 10 µM: Homo sapiens
[23] = system: PC-3; assay: NCI 60 cell line screen, Prostate; assay type: cell-based, human; conditions: one dose 10 µM; for inhibition at 10 µM: Homo sapiens
[24] = system: KM12; assay: NCI 60 cell line screen, Colon; assay type: cell-based, human; conditions: one dose 10 µM; for inhibition at 10 µM: Homo sapiens

COc1ccc(C2N(c3cc(OC)c(OC)c(OC)c3)C(=O)C2(F)F)cc1F (stereo not drawn) [Compound 43, 3,3-Difluoro-4-(3-fluoro-4-methoxyphenyl)-1-(3,4,5-trimethoxyphenyl)azetidin-2-one]
inhibition at 10 µM [1]: -5.64%
Growth % [1]: 105.64%
inhibition at 10 µM [2]: 35.9%
Growth % [2]: 64.09%
inhibition at 10 µM [3]: 46%
Growth % [3]: 54.02%
inhibition at 10 µM [4]: 51.4%
Growth % [4]: 48.65%
inhibition at 10 µM [5]: 41.7%
Growth % [5]: 58.34%
inhibition at 10 µM [6]: 75.8%
Growth % [6]: 24.24%
inhibition at 10 µM [7]: 62.1%
Growth % [7]: 37.86%
inhibition at 10 µM [8]: 86.3%
inhibition at 10 µM [9]: 89.5%
Growth % [9]: 10.5%
inhibition at 10 µM [10]: 24.5%
Growth % [10]: 75.53%
inhibition at 10 µM [11]: 78.3%
Growth % [11]: 21.65%
inhibition at 10 µM [12]: 65%
Growth % [12]: 34.99%
inhibition at 10 µM [13]: 35.3%
Growth % [13]: 64.74%
inhibition at 10 µM [14]: 91.9%
Growth % [14]: 8.08%
inhibition at 10 µM [15]: 58.4%
Growth % [15]: 41.61%
inhibition at 10 µM [16]: 72.8%
Growth % [16]: 27.15%
inhibition at 10 µM [17]: 84.9%
Growth % [17]: 15.06%
Inhibition % [17]: 84.9%
inhibition at 10 µM [18]: 34.3%
Growth % [18]: 65.69%
inhibition at 10 µM [19]: 8.79%
Growth % [19]: 91.21%
inhibition at 10 µM [20]: 79.2%
Growth % [20]: 20.78%
IC50 [21]: 1650 nM
inhibition at 10 µM [22]: 83.7%
Growth % [22]: 16.32%
inhibition at 10 µM [23]: 64.1%
Growth % [23]: 35.89%
inhibition at 10 µM [24]: 77.1%
Growth % [24]: 22.9%

CCOc1ccc(C2N(c3cc(OC)c(OC)c(OC)c3)C(=O)C2(F)F)cc1 (stereo not drawn) [Compound 37, 4-(4-Ethoxyphenyl)-3,3-difluoro-1-(3,4,5-trimethoxyphenyl)azetidin-2-one]
inhibition at 10 µM [1]: -3.32%
Growth % [1]: 103.32%
inhibition at 10 µM [2]: 36.9%
Growth % [2]: 63.07%
inhibition at 10 µM [3]: 53.9%
Growth % [3]: 46.12%
inhibition at 10 µM [4]: 66.4%
Growth % [4]: 33.56%
inhibition at 10 µM [5]: 50.4%
Growth % [5]: 49.59%
inhibition at 10 µM [6]: 72.5%
Growth % [6]: 27.45%
inhibition at 10 µM [7]: 66.4%
Growth % [7]: 33.57%
inhibition at 10 µM [8]: 91.4%
inhibition at 10 µM [9]: 91.5%
Growth % [9]: 8.49%
inhibition at 10 µM [10]: 29%
Growth % [10]: 71.01%
inhibition at 10 µM [11]: 89.2%
Growth % [11]: 10.75%
inhibition at 10 µM [12]: 55.8%
Growth % [12]: 44.17%
inhibition at 10 µM [13]: 44.1%
Growth % [13]: 55.93%
inhibition at 10 µM [14]: 93.2%
Growth % [14]: 6.76%
inhibition at 10 µM [15]: 63.8%
Growth % [15]: 36.19%
inhibition at 10 µM [16]: 87.3%
Growth % [16]: 12.73%
inhibition at 10 µM [17]: 82.8%
Growth % [17]: 17.19%
Inhibition % [17]: 82.8%
inhibition at 10 µM [18]: 30%
Growth % [18]: 70.03%
inhibition at 10 µM [19]: 32.8%
Growth % [19]: 67.23%
inhibition at 10 µM [20]: 85.4%
Growth % [20]: 14.64%
inhibition at 10 µM [22]: 89.2%
Growth % [22]: 10.78%
inhibition at 10 µM [23]: 62.7%
Growth % [23]: 37.3%
inhibition at 10 µM [24]: 72%
Growth % [24]: 27.97%
